Assay results as given in PubChem BioAssay (NCI).
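Five concentrations, 48 hours, 96-well plates. TGI is the concentration that stops growth completely.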

Assays:
Assay in all cases: NCI tumour cell line growth inhibition, 48 h
EKVX NSCLC = system: EKVX NSCLC
A498 renal = system: A498 renal
MALME-3M melanoma = system: MALME-3M melanoma
SK-MEL-28 melanoma = system: SK-MEL-28 melanoma
OVCAR-5 ovarian = system: OVCAR-5 ovarian
DMS 114 small cell lung = system: DMS 114 small cell lung
DLD-1 colon = system: DLD-1 colon
SNB-75 CNS = system: SNB-75 CNS
NCI-H522 lung = system: NCI-H522 lung
OVCAR-4 ovarian = system: OVCAR-4 ovarian
SW-620 colon = system: SW-620 colon
MCF7 breast = system: MCF7 breast
SF-268 CNS = system: SF-268 CNS
NCI-H226 lung = system: NCI-H226 lung
SN12K1 renal = system: SN12K1 renal
P388 leukemia = system: P388 leukemia
U251 CNS = system: U251 CNS
HCC-2998 colon = system: HCC-2998 colon
UO-31 renal = system: UO-31 renal
SN12C renal = system: SN12C renal
P388/ADR leukemia = system: P388/ADR leukemia
RXF 393 renal = system: RXF 393 renal
SF-295 CNS = system: SF-295 CNS
OVCAR-8 ovarian = system: OVCAR-8 ovarian
SK-MEL-5 melanoma = system: SK-MEL-5 melanoma
IGROV1 ovarian = system: IGROV1 ovarian
DMS 273 small cell lung = system: DMS 273 small cell lung
SK-OV-3 ovarian = system: SK-OV-3 ovarian
K-562 leukemia = system: K-562 leukemia
NCI-H460 lung = system: NCI-H460 lung
HOP-92 NSCLC = system: HOP-92 NSCLC
KM20L2 colon = system: KM20L2 colon
SK-MEL-2 melanoma = system: SK-MEL-2 melanoma
COLO 205 colon = system: COLO 205 colon
HOP-62 NSCLC = system: HOP-62 NSCLC
CCRF-CEM leukemia = system: CCRF-CEM leukemia
HCT-116 colon = system: HCT-116 colon
HT29 colon = system: HT29 colon
A549 NSCLC = system: A549 NSCLC
HCT-15 colon = system: HCT-15 colon
LOX IMVI melanoma = system: LOX IMVI melanoma
SF-539 CNS = system: SF-539 CNS
RPMI-8226 leukemia = system: RPMI-8226 leukemia
UACC-257 melanoma = system: UACC-257 melanoma
HL-60(TB) leukemia = system: HL-60(TB) leukemia
OVCAR-3 ovarian = system: OVCAR-3 ovarian
HOP-18 NSCLC = system: HOP-18 NSCLC
SNB-19 CNS = system: SNB-19 CNS
CAKI-1 renal = system: CAKI-1 renal
SNB-78 CNS = system: SNB-78 CNS
XF 498 CNS = system: XF 498 CNS
UACC-62 melanoma = system: UACC-62 melanoma
NCI/ADR-RES ovarian = system: NCI/ADR-RES ovarian
M19-MEL melanoma = system: M19-MEL melanoma
KM12 colon = system: KM12 colon
NCI-H23 lung = system: NCI-H23 lung
MOLT-4 leukemia = system: MOLT-4 leukemia

## Oc1c(CNCCCN2CCCC2)cc(Cl)c2cccnc12
EKVX NSCLC
  TGI: 12.4 µM
A498 renal
  TGI: 29.9 µM
MALME-3M melanoma
  TGI: 17.4 µM
SK-MEL-28 melanoma
  TGI: 23.6 µM
OVCAR-5 ovarian
  TGI: 8.37 µM
DMS 114 small cell lung
  TGI: 9.24 µM
DLD-1 colon
  TGI: 15 µM
SNB-75 CNS
  TGI: 36.3 µM
NCI-H522 lung
  TGI: 12.4 µM
OVCAR-4 ovarian
  TGI: 16.9 µM
SW-620 colon
  TGI: 17.1 µM
MCF7 breast
  TGI: 15.9 µM
SF-268 CNS
  TGI: 18.4 µM
NCI-H226 lung
  TGI: 19.2 µM
SN12K1 renal
  TGI: 4.1 µM
P388 leukemia
  TGI: 9.18 µM
U251 CNS
  TGI: 17 µM
HCC-2998 colon
  TGI: 10.2 µM
UO-31 renal
  TGI: 21.3 µM
SN12C renal
  TGI: 24.6 µM
P388/ADR leukemia
  TGI: 6.32 µM
RXF 393 renal
  TGI: 25.2 µM
SF-295 CNS
  TGI: 5.49 µM
OVCAR-8 ovarian
  TGI: 15.7 µM
SK-MEL-5 melanoma
  TGI: 5.77 µM
IGROV1 ovarian
  TGI: 20.7 µM
DMS 273 small cell lung
  TGI: 10.4 µM
SK-OV-3 ovarian
  TGI: 15 µM
K-562 leukemia
  TGI: 7.38 µM
NCI-H460 lung
  TGI: 10.6 µM
HOP-92 NSCLC
  TGI: 33.7 µM
KM20L2 colon
  TGI: 14.4 µM
SK-MEL-2 melanoma
  TGI: 26.2 µM
COLO 205 colon
  TGI: 15.2 µM
HOP-62 NSCLC
  TGI: 7.24 µM
CCRF-CEM leukemia
  TGI: 13.6 µM
HCT-116 colon
  TGI: 12.8 µM
HT29 colon
  TGI: 17.3 µM
A549 NSCLC
  TGI: 11.3 µM
HCT-15 colon
  TGI: 16.2 µM
LOX IMVI melanoma
  TGI: 15.3 µM
SF-539 CNS
  TGI: 10.1 µM
RPMI-8226 leukemia
  TGI: 16.3 µM
UACC-257 melanoma
  TGI: 24.2 µM
HL-60(TB) leukemia
  TGI: 5.91 µM
OVCAR-3 ovarian
  TGI: 11.9 µM
HOP-18 NSCLC
  TGI: 20.6 µM
SNB-19 CNS
  TGI: > 100 µM
CAKI-1 renal
  TGI: 12.5 µM
SNB-78 CNS
  TGI: 33.5 µM
XF 498 CNS
  TGI: 15.2 µM
UACC-62 melanoma
  TGI: 5.79 µM
NCI/ADR-RES ovarian
  TGI: 7.68 µM
M19-MEL melanoma
  TGI: 9.61 µM
KM12 colon
  TGI: 28.8 µM
NCI-H23 lung
  TGI: 23.9 µM
MOLT-4 leukemia
  TGI: 11.7 µM
